From patent US7470793B2, “Thiazol-(bi)cycloalkyl-carboxanilides” (priority 2002, dated 2008)
Read-outs that look alike come from different tables or passages of the source.

Assays:
[1] = system: Sphaerotheca fuliginea; assay: Sphaerotheca test (cucumber)/protective; format: in vivo; conditions: Podosphaera fuliginea, 168 h, read-out: Efficacy in %
Description: Sphaerotheca Test (Cucumber)/Protective
• Solvents: 24.5 parts by weight of acetone • 24.5 parts by weight of N,N-dimethylacetamide • Emulsifier: 1 part by weight of alkylaryl polyglycol ether
(§1) To produce a suitable preparation of active compound, 1 part by weight of active compound is mixed with the stated amounts of solvents and emulsifier, and the concentrate is diluted with water to the desired concentration.
To test for protective activity, young cucumber plants are sprayed with the preparation of active compound at the stated application rate. After the spray coating has dried on, the plants are inoculated with an aqueous spore suspension of Sphaerotheca fuliginea. The plants are then placed in a greenhouse at about 23° C. and a relative atmospheric humidity of about 70%.
(§2) Evaluation is carried out 7 days after the inoculation. 0% means an efficacy which corresponds to that of the control, whereas an efficacy of 100% means that no infection is observed.

[2] = logP determination by HPLC on reversed-phase column (EEC directive 79/831 Annex V.A8); format: physicochemical; conditions: reversed-phase C18 HPLC column, pH 2.3, C 18 reversed-phase, 43° C., 0.1% aqueous phosphoric acid/acetonitrile gradient
Description: The logP values given in the Preparation Examples were determined in accordance with EEC directive 79/831 Annex V.A8 by HPLC (High Performance Liquid Chromatography) on a reversed-phase column (C 18). Temperature: 43° C.
Mobile phases for the determination in the acidic range: 0.1% aqueous phosphoric acid, acetonitrile; linear gradient from 10% acetonitrile to 90% acetonitrile.
Calibration was carried out using unbranched alkan-2-ones (having 3 to 16 carbon atoms) with known logP values (determination of the logP values by the retention times using linear interpolation between two successive alkanones).

[3] = system: Alternaria solani; assay: Alternaria test (tomato)/protective; format: in vivo; conditions: tomato plants, protective spray, application rate 750 g/ha, evaluation 7 days after inoculation
Description: Alternaria Test (Tomato)/Protective
• Solvent: 49 parts by weight of N,N-dimethylformamide • Emulsifier: 1 part by weight of alkylaryl polyglycol ether
(§3) To produce a suitable preparation of active compound, 1 part by weight of active compound is mixed with the stated amounts of solvent and emulsifier, and the concentrate is diluted with water to the desired concentration.
To test for protective activity, young tomato plants are sprayed with the preparation of active compound at the stated application rate. 1 day after the treatment, the plants are inoculated with a spore suspension of Alternaria solani. The plants then remain at 100% relative atmospheric humidity and 20° C. for 24 hours. Subsequently, the plants remain at 96% relative atmospheric humidity and a temperature of 20° C.
as §2

[4] = system: Venturia inaequalis; assay: Venturia test (apple)/protective; format: in vivo; conditions: apple plants, protective spray, application rate 100 g/ha, evaluation 10 days after inoculation
Description: Venturia Test (Apple)/Protective
• Solvents: 2.5 parts by weight of acetone • 24.5 parts by weight of dimethylacetamide • Emulsifier: 1.0 part by weight of alkylaryl polyglycol ether
as §1
To test for protective activity, young plants are sprayed with the preparation of active compound at the stated application rate. After the spray coating has dried on, the plants are inoculated with an aqueous conidia suspension of the apple scab pathogen Venturia inaequalis and then remain in an incubation cabinet at about 20° C. and 100% relative atmospheric humidity for 1 day.
The plants are then placed in a greenhouse at about 21° C. and a relative atmospheric humidity of about 90%.
(§4) Evaluation is carried out 10 days after the inoculation. 0% means an efficacy which corresponds to that of the control, whereas an efficacy of 100% means that no infection is observed.

[5] = system: Puccinia recondita; assay: Puccinia test (wheat)/protective; format: in vivo; conditions: wheat plants, protective spray, application rate 500 g/ha, evaluation 10 days after inoculation
Description: Puccinia Test (Wheat)/Protective
• Solvent: 25 parts by weight of N,N-dimethylacetamide • Emulsifier: 0.6 part by weight of alkylaryl polyglycol ether
as §3
To test for protective activity, young plants are sprayed with the preparation of active compound at the stated application rate. After the spray coating has dried on, the plants are sprayed with a conidia suspension of Puccinia recondita. The plants remain in an incubation cabin at about 20° C. and 100% relative atmospheric humidity for 48 hours.
The plants are then placed in a greenhouse at a temperature of about 20° C. and a relative atmospheric humidity of 80% to promote the development of rust pustules.
as §4

[6] = cucumber plants, protective spray, application rate 100 g/ha, evaluation 7 days after inoculation

SMILES	chromatographic logP [2]	pest or weed control at 100 g/ha [1, 6] [%]	Efficacy in % [3] [%]	Efficacy in % [4] [%]	Efficacy in % [5] [%]	pest or weed control at 100 g/ha [1] [%]
Cc1nc(C(F)F)c(C(=O)N(C)c2ccccc2C2CC3CCC2C3)s1 (stereo not shown) [Example 19]	3.96	98				
CC(=O)N(C(=O)c1sc(C)nc1C(F)F)c1ccccc1C1CC2CCC1C2 (stereo not shown) [Example 21]	3.95	98	100	96		
CC(=O)N(C(=O)c1sc(C)nc1C(F)F)c1ccccc1C1CCCCC1 [Example 22]	3.86	96			93	
Cc1nc(C(F)F)c(C(=O)Nc2ccc(Br)cc2C2CC3CCC2C3)s1 (stereo not shown) [Example 14]	4.27	100	95	100		
Cc1nc(C(F)F)c(C(=O)Nc2ccccc2C2CC3CCC2C3)s1 (stereo not shown) [Example 2, N-(2-bicyclo[2.2.1]hept-2-ylphenyl)-4-(difluoromethyl)-2-methyl-1,3-thiazole-5-carboxamide]	3.63			100	100	100
Cc1nc(C(F)F)c(C(=O)N(C)c2ccccc2C2CCCCC2)s1 [Example 20]	3.85	100				

Second part, led by results:

chromatographic logP [2]	SMILES	pest or weed control at 100 g/ha [1, 6] [%]	Efficacy in % [3] [%]	Efficacy in % [4] [%]	Efficacy in % [5] [%]	pest or weed control at 100 g/ha [1] [%]
3.24	Cc1nc(C(F)F)c(C(=O)Nc2ccc(F)cc2C2CCCC2)s1 [Example 6]	88		99		
4.06	Cc1nc(C(F)F)c(C(=O)Nc2ccccc2C2CCCCCCC2)s1 [Example 8]	93		100	100	
3.88	Cc1nc(C(F)F)c(C(=O)Nc2ccccc2C2CCC[C@@H](C)C2)s1 (stereo partly shown) [Example 18]	100	100	100		
3.5	Cc1nc(C(F)F)c(C(=O)Nc2ccccc2C2CCCCC2)s1 [Example 1, N-(2-cyclohexylphenyl)-4-(difluoromethyl)-2-methyl-1,3-thiazole-5-carboxamide]	89		100	100	
